Assay results from patent EP0018104A2, “Tetrahydroisoquinolines, their production and the compounds and pharmaceutical compositions containing them for use in the prevention or treatment of hypertension” (Takeda Chemical Industries, Ltd., priority 1979, dated 1980).
Where two headings read alike, the source gives them in different places.

What was measured:
[1] = target: T1, angiotensin I converting enzyme (ACE) (Oryctolagus cuniculus, UniProt P12822); test: Inhibition of angiotensin I converting enzyme (HHL substrate, hippuric acid colorimetry, modified Cushman method); format: biochemical, albino rabbit; conditions: ACE from rabbit lung, 37°C, one hour, read-out: Inhibitory Activity on ACE (%); for inhibition at 1 µM: Concentration 1 µM; for inhibition at 10 µM: Concentration 10 µM
T1 construct: prepared from the lungs of albino rabbit according to the method described by Wallace et al; from tissue; host or cells: lungs of albino rabbit
T1 sequence (P12822 34-1310): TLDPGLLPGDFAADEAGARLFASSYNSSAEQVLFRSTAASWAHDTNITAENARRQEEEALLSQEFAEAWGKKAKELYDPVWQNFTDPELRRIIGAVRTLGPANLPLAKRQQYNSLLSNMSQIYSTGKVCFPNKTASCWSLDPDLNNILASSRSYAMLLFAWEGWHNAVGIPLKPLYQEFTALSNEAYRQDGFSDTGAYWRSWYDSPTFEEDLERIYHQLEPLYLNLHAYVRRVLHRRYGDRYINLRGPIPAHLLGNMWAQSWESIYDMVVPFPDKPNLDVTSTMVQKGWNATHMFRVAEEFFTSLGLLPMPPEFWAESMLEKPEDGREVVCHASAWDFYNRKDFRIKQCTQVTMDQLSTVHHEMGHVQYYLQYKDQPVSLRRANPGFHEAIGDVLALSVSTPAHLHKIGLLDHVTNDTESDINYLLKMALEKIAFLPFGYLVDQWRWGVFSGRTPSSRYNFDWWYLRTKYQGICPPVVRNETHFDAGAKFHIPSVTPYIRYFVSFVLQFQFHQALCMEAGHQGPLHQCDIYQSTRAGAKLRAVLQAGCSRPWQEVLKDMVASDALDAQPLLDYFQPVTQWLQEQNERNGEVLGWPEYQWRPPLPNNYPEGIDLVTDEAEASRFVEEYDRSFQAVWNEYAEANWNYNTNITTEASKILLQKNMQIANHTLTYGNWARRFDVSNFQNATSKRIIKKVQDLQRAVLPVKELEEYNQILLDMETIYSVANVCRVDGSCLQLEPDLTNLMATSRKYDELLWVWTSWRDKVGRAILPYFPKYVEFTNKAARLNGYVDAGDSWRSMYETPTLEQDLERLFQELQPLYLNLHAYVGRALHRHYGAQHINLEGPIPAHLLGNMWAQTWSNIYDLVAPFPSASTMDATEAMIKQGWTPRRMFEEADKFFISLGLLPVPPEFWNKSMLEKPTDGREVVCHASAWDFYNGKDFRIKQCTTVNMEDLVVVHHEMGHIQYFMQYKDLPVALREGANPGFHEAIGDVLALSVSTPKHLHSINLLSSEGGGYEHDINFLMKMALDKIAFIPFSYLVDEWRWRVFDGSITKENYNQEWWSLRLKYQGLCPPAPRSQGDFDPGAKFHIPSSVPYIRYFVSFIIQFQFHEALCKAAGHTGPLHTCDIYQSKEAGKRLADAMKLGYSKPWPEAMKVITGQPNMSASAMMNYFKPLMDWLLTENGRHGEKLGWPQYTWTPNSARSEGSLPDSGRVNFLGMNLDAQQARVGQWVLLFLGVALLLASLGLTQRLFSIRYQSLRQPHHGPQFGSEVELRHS
Experimental: Inhibitions of Angiotensin I Converting Enzyme by the Compounds of this Invention.
The experiment was conducted in accordance with a modification of the method described by Cushman et al. [Biochemical Pharmacology, Vol. 20, p1637(1971)] using an angiotensin I converting enzyme (ACE) prepared from the lungs of albino rabbit according to the method described by Wallace et al. [American Journal of Physiology, Vol 234, page R141(1978)]. That is, using hippuryl-L-histidyl-L-leucin (HHL) as the substrate, the ACE inhibitory activity was determined in terms of percentage inhibitation on the amount of hippurie acid produced by ACE when the present compound was added. A solution of the compound of the present invention dissolved in an 0.02 to 2% dimethyl sulfoxide-500 mMpotassium phosphate buffer solution (pH 8.3, containing 300 mM sodium chloride) was added to 100 µℓ of ACE (protein concentration, 20 mg/mℓ) and 100 µℓ of 1.25 mM HHL. In this experiment a potassium phosphate buffer solution containing dimethyl sulfoxide at a concentration equal to that of the test solution was used as a control. After incubating the solution at 37°C for one hour, 150 µℓ of 1N hydrochloric acid were added to the solution to terminate the reaction. After 1 mℓ of ethyl acetate was added, the solution was centrifuged at 3000 r.p.m. for 10 minutes. An 0.5 mℓ aliquot was separated from the ethyl acetate layer and dried at a temperature below 50°C under a nitrogen. gas stream. The residue was mixed with mℓ of 1M aqueous sodium chloride and the mixture was subjected to colorimetry at a wavelength of 228 nm.

[2] = system: Hypertensive Activity of Angiotensin I; test: Effect against hypertensive activity of angiotensin I in anaesthetized-cannulated rats after oral dosing; format: in vivo, Male rats (Sprague-Dawley); conditions: Rattus norvegicus, 138 µM/kg orally, corrected by angiotensin II response
Experimental: Male rats (Sprague-Dawley) weighing 230 to 350 g, which were fed under free access to drinking water and feeds, were used as experimental animals. The rats were anaesthetized with intraperitoneal administration of pentobarbital sodium (50 mg/kg) on the day before the test day, and a polyethylene tube was inserted into each femoral artery for measurement of blood pressare and the femoral vein for injection of angiotensin I and II, and then the tubes were fixed.
On the test day, an average blood pressure in the control phase was recorded on an electric haemedynamemeter (MP-4T model manufactured by Nippon Koden, Japan) and, thereafter, angiotensin I and then angionensin II were injected through the femoral vein at a dose of […] and 100 ng/kg, respectively, to measure the hypertensive activity. Then, 138 µM/kg of the compound of this invention were administrated orally as an aqueous solution or an aqueous gum arabic suspension, […], angiotensin I and II were injected repeatedly to trace hypertensive reactions. In calculating the percentage inhibition to the hypertensive activity of angiotensin 1, the percentage inhibitory value was corrected based on the variation with time in the hypertensive reaction by anziotensin II.

[3] = 20 min, After 20 min, read-out: Percent Inhibition (%) against Hyper-tensive Reaction by Angiotensin I After 20 min
[4] = 1 h, After 60 min, read-out: Percent Inhibition (%) against Hyper-tensive Reaction by Angiotensin I After 60 min
[5] = 2 h, After 120 min, read-out: Percent Inhibition (%) against Hyper-tensive Reaction by Angiotensin I After 120 min

inhibition at 1 µM [1] [%] | inhibition at 10 µM [1] [%] | SMILES | inhibition in vivo at 138 µM, 138 µmol/kg [2, 3] [%] | inhibition in vivo at 138 µM, 138 µmol/kg [2, 4] [%] | inhibition in vivo at 138 µM, 138 µmol/kg [2, 5] [%]
23 | 87 | CC(=O)SCC(C)C(=O)N1Cc2cc(O)c(O)cc2C[C@H]1C(=O)O (stereo partly drawn) [Example 1, (3S)-2-(3-acetylthio-2-methylpropionyl)-6,7-dihydroxy-1,2,3,4-tetrahydroisoquinoline-5-carboxylie aeid] |  |  | 
 |  | CC(=O)SCC(C)C(=O)N1Cc2cc(C(C)(C)C)ccc2CC1C(=O)O (centres unmarked) [Example 3, 2-(3-acetylthio-2-methylpropionyl)-7-tert-utyl-1,2,3,4-tetrahydroisoquinoline-3-carboxylic acid] | 86 | 94 | 90
 |  | CC(=O)SCC(C)C(=O)N1Cc2cc3c(cc2CC1C(=O)O)CCCC3 (centres unmarked) [Example 4] | 90 | 79 | 63
 |  | CC(=O)SCC(C)C(=O)N1[C@H](C)c2cc(O)c(O)cc2C[C@H]1C(=O)O (some centres unmarked) [Example 5, (M, 3S)-2-(5-acetylthio-2-methylpropionyl)-6,7-dihycroxy-1-methyl-1,2,3,4-tetrahydroisquinoline-3-carboxylie acid] | 84 | 98 | 96
62 | 99 | COc1cc2c(cc1OC)CN(C(=O)C(C)CSC(C)=O)C(C(=O)O)C2 (centres unmarked) [Example 6, 2-(3-acetylthio-2-methylpropionyl)-6,7-dimethoxy-1,2,3,4-tetrahydroisoquinoline-3-carboxylic aeid] |  |  | 
63 | 88 | CC(=O)SCC(C)C(=O)N1Cc2cc(C)ccc2CC1C(=O)O (centres unmarked) [Example 7] |  |  | 
33 | 90 | COc1cc2c(cc1O)CN(C(=O)C(C)CSC(C)=O)C(C(=O)O)C2 (centres unmarked) [Example 14, 2-(3-acetylthio-2-methylpropionyl)-7-hydroxy-6-methoxy-1,2,3,4-tetrahydroisoquinoline-3-carbxylic acid] |  |  | 
61 | 98 | CC(=O)SCC(C)C(=O)N1Cc2ccc(O)cc2CC1C(=O)O (centres unmarked) [Example 19, 2-(3-acetylthio-2-methylpropionyl)-6-hydroxy-1,2,3,4-tetrahydroisoquinoline-3-carboxylic acid] |  |  | 
 |  | COc1ccc2c(c1)CN(C(=O)C(C)CSC(C)=O)C(C(=O)O)C2 (centres unmarked) [Example 23, 2-(3-acetylthio-2-methylpropionyl)-7-methoxy-1,2, 3.4-tetrahydroisoquinoline-3-carboxylic acid] | 80 | 82 | 87
63 | 94 | CC(=O)SCC(C)C(=O)N1Cc2cc(CC(C)C)ccc2CC1C(=O)O (centres unmarked) [Example 34, 2-(3-acetylthio-2-methylpropionyl)-7-isobutyl-1,2,3,4-tetrahydroisoquinoline-3-carboxylic acid] |  |  | 
83 | 100 | CC(=O)SCC(C)C(=O)N1Cc2cc3c(cc2C[C@H]1C(=O)O)OCO3 (stereo partly drawn) [Example 38, (3S)-2-(3-acetylthio-2-methylpropionyl)-6,7-methylenedioxy-1,2,3,4-tetrahydroisoquinoline-3-carboxylic acid] |  |  | 
 |  | CC(=O)SCC(C)C(=O)N1Cc2cc(N3CCCC3)ccc2CC1C(=O)O (centres unmarked) [Example 43] | 100 | 95 | 87
 |  | CC(CS)C(=O)N1Cc2cc(C(C)(C)C)ccc2C[C@H]1C(=O)O (stereo partly drawn) [Example 51, (3S)-7-tert-butyl-2-(3-mercapto-2-methylproplonyl)-1,2,3,4-tetrahydroisoquinoline-3-carboxylic acid] | 100 | 100 | 78
 |  | CC(=O)SCC(CSC(C)=O)C(=O)N1Cc2cc(O)c(O)cc2C[C@H]1C(=O)O [Example 56, (S)-2-(3-acetylthio-2-acetylthiomethyl-propionyl)-6,7-dihydroxy-1,2,3,4-tetrahydroisoquinoline-3-carboxylic acid] | 80 | 84 | 69
 |  | CC(=O)SCC(CSC(C)=O)C(=O)N1Cc2cc3c(cc2CC1C(=O)O)CCCC3 (centres unmarked) [Example 58, 2-(3-acetylthio-2-acetylthiomethylpropionyl)-1,2,3,4,6,7,8,9-octahydrobenzo[g]isoquinoline-3--carboxylic aeid] | 80 | 78 | 66
 |  | CC(=O)SCC(CSC(C)=O)C(=O)N1Cc2ccc(O)cc2CC1C(=O)O (centres unmarked) [Example 60, 2-(3-acetylthio-2-acetylthiomethylpropionyl)-6-hydroxy-1,2,3,4-tetrahydroisoquinoline-3-carboxylic acid] | 82 | 77 | 71
 |  | CC(=O)SCC(CSC(C)=O)C(=O)N1Cc2cc(C(C)C)ccc2CC1C(=O)O (centres unmarked) [Example 61, 2-(3-aeetylthio-2-acetylthiomethylpropionyl)-7-isopropyl-1,2,3,4-tetrahydroisoquinoline-3-carboxylic acid] | 78 | 84 | 58
 |  | O=C(O)C1Cc2cc3c(cc2CN1C(=O)C(CS)CS)OCO3 (centres unmarked) [Example 69, 2-(3-mercapto-2-mercapthylpropionyl)-6,7-methylenedioxy-1,2,3,4-tetrahydroisooquinoline-3-carboxylic acid] | 95 | 77 | 76
